Assay results from US20230108906A1, “SUBSTITUTED BICYCLIC AND TRICYCLIC UREAS AND AMIDES, ANALOGUES THEREOF, AND METHODS USING SAME” (Arbutus Biopharma Corporation, priority 2019, published 2023).

These compounds were tested on HBV rcDNA in HepDE19 cells (assay: HepDE19 assay with bDNA quantitation of HBV rcDNA). Conditions: Hepatitis B virus, HepDE19, 168 h, inhibition of rcDNA formation in HepDE19 cells (HepG2 derived), Tet-free medium, 7 day incubation, Quantigene 2.0 bDNA readout, top concentration 25 μM; read-out: DE-19bDNA EC50.
Type: cell-based, hepatitis B virus (HBV)
Description: HepDE19 Assay with bDNA Quantitation of HBV rcDNA:
HepDE19 cell culture system is a HepG2 (human hepatocarcinoma) derived cell line that supports HBV DNA replication and cccDNA formation in a tetracycline (Tet)-regulated manner and produces HBV rcDNA and a detectable reporter molecule dependent on the production and maintenance of cccDNA (Guo, et al., 2007, J. Virol. 81:12472-12484).
HepDE19 (50,000 cells/well) were plated in 96-well collagen-coated tissue-culture treated microtiter plates in DMEM/F12 medium supplemented with 10% fetal bovine serum, 1% penicillin-streptomycin and 1 μg/mL tetracycline and incubated in a humidified incubator at 37° C. and 5% CO2 overnight. Next day, the cells were switched to fresh medium without tetracycline and incubated for 4 hours at 37° C. and 5% CO2. The cells were treated with fresh Tet-free medium with compounds at concentrations starting at 25 μM and a serial, […], 8-point, titration series in duplicate. The final DMSO concentration in the assay was 0.5%. The plates were incubated for 7 days in a humidified incubator at 37° C. and 5% CO2. Following a 7 day-incubation, the level of rcDNA present in the inhibitor-treated wells was measured using a Quantigene 2.0 bDNA assay kit (Affymetrix, Santa Clara, Calif.) with HBV specific custom probe set and manufacturers instructions. Concurrently, the effect of compounds on cell viability was assessed using replicate plates, plated at a density of 5,000 cells/well and incubated for 4 days, to determine the ATP content as a measure of cell viability using the cell-titer glo reagent (CTG; Promega Corporation, Madison, Wis.) as per manufacturer's instructions. The plates were read using a Victor luminescence plate reader (PerkinElmer Model 1420 Multilabel counter) and the relative luminescence units (RLU) data generated from each well was calculated as % inhibition of the untreated control wells and analyzed using XL-Fit module in Microsoft Excel to determine EC50 and EC90 (bDNA) and CC50 (CTG) values using a 4-parameter curve fitting algorithm.
Representative compounds of the disclosure were tested for their abilities to inhibit formation of relaxed circular DNA (rcDNA) in a HepDE19 assay, as described elsewhere herein.

| Structure (SMILES) | EC50 [µM] |
| --- | --- |
| CN(C(=O)N1Cc2ccc(F)cc2C1)[C@@H]1COCc2[nH]c(=O)c3cc(F)c(F)cc3c21 [Compound 221, (S)—N-(8,9-Difluoro-6-oxo-1,4,5,6-tetrahydro-2H-pyrano[3,4-c]isoquinolin-1-yl)-5-fluoro-N-methylisoindoline-2-carboxamide] | 5.9 |
| CN(C(=O)Nc1cc(F)c(F)c(F)c1)C1CCCc2[nH]c(=O)c3cc(F)ccc3c21 (centres unmarked) [Compound 33, 1-(8-Fluoro-6-oxo-1,2,3,4,5,6-hexahydrophenanthridin-1-yl)-1-methyl-3-(3,4,5-trifluorophenyl)urea] | 0.1 |
| CN(C(=O)Nc1ccc(Cl)c(F)c1)[C@@H]1COCc2[nH]c(=O)c3cc(F)c(F)cc3c21 [Compound 141, (S)-3-(4-Chloro-3-fluorophenyl)-1-(8,9-difluoro-6-oxo-1,4,5,6-tetrahydro-2H-pyrano[3,4-c]isoquinolin-1-yl)-1-methylurea] | 0.02 |
| CN(C(=O)Nc1ccc(F)c(C(F)F)c1)[C@@H]1COCc2nc(OCCO)c3cc(F)c(F)cc3c21 [Compound 256, (S)-1-(8,9-Difluoro-6-(2-hydroxyethoxy)-1,4-dihydro-2H-pyrano[3,4-c]isoquinolin-1-yl)-3-(3-(difluoromethyl)-4-fluorophenyl)-1-methylurea] | 0.019 |
| CN(C(=O)Nc1ccc(F)c(Cl)c1)C1COCc2[nH]c(=O)c3ccsc3c21 (centres unmarked) [Compound 96, 3-(3-chloro-4-fluorophenyl)-1-methyl-1-(4-oxo-4,6,8,9-tetrahydro-5H-pyrano[3,4-b]thieno[2,3-d]pyridin-9-yl)urea] | 0.08 |
| CN(C(=O)Nc1ccc(F)c(C(F)F)c1)C1COCc2[nH]c(=O)c3cc(F)ccc3c21 (single isomer, unassigned) [Compound 123, 3-(3-(Difluoromethyl)-4-fluorophenyl)-1-(8-fluoro-6-oxo-1,4,5,6-tetrahydro-2H-pyrano[3,4-c]isoquinolin-1-yl)-1-methylurea] | 0.56 |
| CCN(C(=O)Nc1ccc(F)c(Cl)c1)C1COCc2[nH]c(=O)c3ccc(F)cc3c21 (centres unmarked) [Compound 74, 3-(3-Chloro-4-fluorophenyl)-1-ethyl-1-(9-fluoro-6-oxo-1,4,5,6-tetrahydro-2H-pyrano[3,4-c]isoquinolin-1-yl)urea] | 0.02 |
| N#Cc1cc(NC(=O)N[C@@H]2COCc3[nH]c(=O)c4cc(F)c(F)cc4c32)ccc1F (single isomer, unassigned) [Compound 135] | 0.05 |
| CC(C)CN(C(=O)Nc1ccc(F)c(Cl)c1)C1CCc2[nH]c(=O)c3ccccc3c21 (centres unmarked) [Compound 13, 3-(3-Chloro-4-fluorophenyl)-1-isobutyl-1-(5-oxo-2,3,4,5-tetrahydro-1H-cyclopenta[c]isoquinolin-1-yl)urea] | 1.3 |
| CC(C)CN(C(=O)Nc1ccc(F)c(Cl)c1)C1COCc2[nH]c(=O)c3ccccc3c21 (centres unmarked) [Compound 30, 3-(3-Chloro-4-fluorophenyl)-1-isobutyl-1-(6-oxo-1,4,5,6-tetrahydro-2H-pyrano[3,4-c]isoquinolin-1-yl)urea] | 0.02 |
| CN(C(=O)Nc1ccc(F)c(C(F)F)c1)[C@H]1COCc2[nH]c(=O)c3cc(F)c(F)cc3c21 (single isomer, unassigned) [Compound 125] | 0.49 |
| CN(C(=O)Nc1ccc(F)c(C#N)c1)[C@@H]1COCc2[nH]c(=O)c3cc(F)ccc3c21 (single isomer, unassigned) [Compound 64] | 0.02 |
| CN(C(=O)Nc1ccc(F)c(Cl)c1)C1CCCc2[nH]c(=O)c3c(c21)COCC3 (centres unmarked) [Compound 80, 3-(3-Chloro-4-fluorophenyl)-1-methyl-1-(5-oxo-3,4,5,6,7,8,9,10-octahydro-1H-pyrano[4,3-c]quinolin-10-yl)urea] | 2.8 |
| CN(C(=O)Nc1ccc(F)c(Cl)c1)C1COCc2[nH]c(=O)c3cc(F)cc(F)c3c21 (centres unmarked) [Compound 25, 3-(3-Chloro-4-fluorophenyl)-1-(8,10-difluoro-6-oxo-1,4,5,6-tetrahydro-2H-pyrano[3,4-c]isoquinolin-1-yl)-1-methylurea] | 0.29 |

Same assay, conditions: Hepatitis B virus, HepDE19, 168 h, read-out: DE-19bDNA EC50 (uM), inhibition of rcDNA formation in HepDE19 cells (HepG2 derived), Tet-free medium, 7 day incubation, Quantigene 2.0 bDNA readout, top concentration 25 μM

| Structure (SMILES) | EC50 [µM] |
| --- | --- |
| [2H]C([2H])([2H])N(C(=O)Nc1ccc(F)c(Cl)c1)[C@]1([2H])COCc2[nH]c(=O)c3cc(F)c(F)cc3c21 (single isomer, unassigned) [Compound 146] | 0.01 |

Same assay, conditions: inhibition of rcDNA formation in HepDE19 cells (HepG2 derived), Tet-free medium, 7 day incubation, Quantigene 2.0 bDNA readout, top concentration 25 μM; read-out: DE-19bDNA EC50

| Structure (SMILES) | EC50 [µM] |
| --- | --- |
| CC(=O)N1Cc2[nH]c(=O)c3cc(F)ccc3c2C(N(C)C(=O)Nc2ccc(F)c(C#N)c2)C1 (single isomer, unassigned) [Compound 166, 1-(3-Acetyl-8-fluoro-6-oxo-1,2,3,4,5,6-hexahydrobenzo[c][1,7]naphthyridin-1-yl)-3-(3-cyano-4-fluorophenyl)-1-methylurea] | 11 |
| CN(C(=O)Nc1ccc(F)c(Cl)c1)C1CCCc2[nH]c(=O)c3ccccc3c21 (single isomer, unassigned) [Compound 17, 3-(3-Chloro-4-fluorophenyl)-1-methyl-1-(6-oxo-1,2,3,4,5,6-hexahydrophenanthridin-1-yl)urea] | 0.05 |
| CC(=O)N1Cc2[nH]c(=O)c3cc(F)ccc3c2C(N(C)C(=O)Nc2ccc(F)c(C#N)c2)C1 (single isomer, unassigned) [Compound 165, 1-(3-Acetyl-8-fluoro-6-oxo-1,2,3,4,5,6-hexahydrobenzo[c][1,7]naphthyridin-1-yl)-3-(3-cyano-4-fluorophenyl)-1-methylurea] | ≥ 25 |
| CN(C(=O)Nc1ccc(F)c(Cl)c1)C1C[S+]([O-])Cc2[nH]c(=O)c3cc(F)ccc3c21 (single isomer, unassigned) [Compound 194, 3-(3-Chloro-4-fluorophenyl)-1-(8-fluoro-3-oxido-6-oxo-1,4,5,6-tetrahydro-2H-thiopyrano[3,4-c]isoquinolin-1-yl)-1-methylurea] | ≥ 25 |
| O=C(Nc1ccc(F)c(Cl)c1)N(CCCO)C1COCc2[nH]c(=O)c3cc(F)ccc3c21 (single isomer, unassigned) [Compound 110, 3-(3-Chloro-4-fluorophenyl)-1-(8-fluoro-6-oxo-1,4,5,6-tetrahydro-2H-pyrano[3,4-c]isoquinolin-1-yl)-1-(3-hydroxypropyl)urea] | 0.02 |
| CN(C(=O)Nc1ccc(F)c(Cl)c1)C1C[S+]([O-])Cc2[nH]c(=O)c3cc(F)c(F)cc3c21 (single isomer, unassigned) [Compound 210, 3-(3-Chloro-4-fluorophenyl)-1-(8,9-difluoro-3-oxido-6-oxo-1,4,5,6-tetrahydro-2H-thiopyrano[3,4-c]isoquinolin-1-yl)-1-methylurea] | 7.1 |
| CN(C(=O)Nc1ccc(F)c(F)c1)C1CCCc2[nH]c(=O)c3c(c21)CCOC3 (single isomer, unassigned) [Compound 62, 3-(3,4-Difluorophenyl)-1-methyl-1-(5-oxo-1,4,5,6,7,8,9,10-octahydro-2H-pyrano[3,4-c]quinolin-10-yl)urea] | 1.3 |
| CN(C(=O)Nc1ccc(F)c(F)c1)C1COCc2[nH]c(=O)c3c(c21)CCOC3 (single isomer, unassigned) [Compound 93, 3-(3,4-Difluorophenyl)-1-methyl-1-(6-oxo-1,2,4,5,6,7,9,10-octahydrodipyrano[3,4-b:4′,3′-d]pyridin-1-yl)urea] | ≥ 25 |
| Cc1cc(NC(=O)N(CC(C)C)C2COCc3[nH]c(=O)c4cc(F)ccc4c32)ccc1F (single isomer, unassigned) [Compound 132, 3-(4-Fluoro-3-methylphenyl)-1-(8-fluoro-6-oxo-1,4,5,6-tetrahydro-2H-pyrano[3,4-c]isoquinolin-1-yl)-1-isobutylurea] | 0.15 |
| CN(C(=O)Nc1ccc(F)c(F)c1)C1COCc2[nH]c(=O)c3cc(F)c(F)cc3c21 (single isomer, unassigned) [Compound 117, 1-(8,9-Difluoro-6-oxo-1,4,5,6-tetrahydro-2H-pyrano[3,4-c]isoquinolin-1-yl)-3-(3,4-difluorophenyl)-1-methylurea] | 2.7 |
| CS(=O)(=O)CCN(C(=O)Nc1ccc(F)c(Cl)c1)C1COCc2[nH]c(=O)c3cc(F)c(F)cc3c21 (single isomer, unassigned) [Compound 139, 3-(3-Chloro-4-fluorophenyl)-1-(8,9-difluoro-6-oxo-1,4,5,6-tetrahydro-2H-pyrano[3,4-c]isoquinolin-1-yl)-1-(2-(methylsulfonyl)ethyl)urea] | 0.6 |
